In patent US6914045B2, “Glycopeptide antibiotics” (Wyeth Holdings Corporation, priority 2001, dated 2005):
Values after ≈ are worked out from the molar mass of the structure shown. Each block holds one molecule with its values, some of them ahead of it.

Legend:
Experiment in all cases: in vitro antibacterial evaluation, MIC by broth dilution
Assay type in all cases: cell-based
Escherichia coli = details: 18 hours at 35° C.
Outline: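 Test organisms, which included recent clinical isolates resistant to methicillin, penicillin and/or vancomycin, were inoculated at 5×10^5 CFU/mL into Muller-Hinton II […] containing antibiotic at 64-0.06 μg/mL. Minimum inhibitory concentrations were then read as the lowest level inhibiting growth.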

Staphylococcus sp. = details: broth dilution, 18 hours at 35° C.
Outline: (§1)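 Read-out: the lowest concentration at which the test strain fails to grow. Serial dilutions (64-0.06 μg/mL) in Muller-Hinton II […], 5×10^5 CFU/mL inoculum, NCCLS M7-A2 procedure.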

Streptococcus sp. = details: broth dilution, 18 hours at 35° C.
Outline: as §1

Enterococcus sp. = details: broth dilution, 18 hours at 35° C.
Outline: as §1

[1] = Enterococcus faecalis (ATCC 29212)
[2] = Enterococcus faecalis (GC 4553)
[3] = Enterococcus faecalis (GC 4554)

MIC Escherichia coli (ATCC 25922) (Escherichia coli; Escherichia coli (ATCC 25922)): >64 µg/mL | MIC Escherichia coli (GC 4559) (Escherichia coli; Escherichia coli (GC 4559)): >64 µg/mL | MIC Escherichia coli (GC 4560) (Escherichia coli; Escherichia coli (GC 4560)): 2 µg/mL (≈ 1.44 µM) | MIC Coagulase Negative Staphylococcus (GC 4547) (Staphylococcus sp.): 2 µg/mL (≈ 1.44 µM) | MIC Coagulase Negative Staphylococcus (GC 4548) (Staphylococcus sp.): 2 µg/mL (≈ 1.44 µM) | MIC Coagulase Negative Staphylococcus (GC 4549) (Staphylococcus sp.): 2 µg/mL (≈ 1.44 µM) | MIC Coagulase Negative Staphylococcus (GC 4551) (Staphylococcus sp.): 4 µg/mL (≈ 2.87 µM) | MIC Staphylococcus aureus (ATCC 29213) (Staphylococcus sp.): 4 µg/mL (≈ 2.87 µM) | MIC Staphylococcus aureus (GC 1131) (Staphylococcus sp.): 4 µg/mL (≈ 2.87 µM) | MIC Staphylococcus aureus (GC 4541) (Staphylococcus sp.): 4 µg/mL (≈ 2.87 µM) | MIC Staphylococcus aureus (GC 4542) (Staphylococcus sp.): 4 µg/mL (≈ 2.87 µM) | MIC Staphylococcus aureus (GC 4544) (Staphylococcus sp.): 4 µg/mL (≈ 2.87 µM) | MIC Staphylococcus aureus (GC 4545) (Staphylococcus sp.): 4 µg/mL (≈ 2.87 µM) | MIC Staphylococcus aureus-SMITH (GC 4543) (Staphylococcus sp.): 4 µg/mL (≈ 2.87 µM) | MIC Staphylococcus aureus (ATCC 29213) (Staphylococcus sp.; strain ATCC 29213): 4 µg/mL (≈ 2.87 µM) | MIC Staphylococcus aureus (GC 1131) (Staphylococcus sp.; strain GC 1131): 4 µg/mL (≈ 2.87 µM) | MIC Staphylococcus aureus (GC 4541) (Staphylococcus sp.; strain GC 4541): 4 µg/mL (≈ 2.87 µM) | MIC Staphylococcus aureus (GC 4542) (Staphylococcus sp.; strain GC 4542): 4 µg/mL (≈ 2.87 µM) | MIC Staphylococcus aureus (GC 4544) (Staphylococcus sp.; strain GC 4544): 4 µg/mL (≈ 2.87 µM) | MIC Staphylococcus aureus (GC 4545) (Staphylococcus sp.; strain GC 4545): 4 µg/mL (≈ 2.87 µM) | MIC Coagulase Negative Staphylococcus (GC 4547) (Staphylococcus sp.; strain GC 4547): 2 µg/mL (≈ 1.44 µM) | MIC Coagulase Negative Staphylococcus (GC 4548) (Staphylococcus sp.; strain GC 4548): 2 µg/mL (≈ 1.44 µM) | MIC Coagulase Negative Staphylococcus (GC 4549) (Staphylococcus sp.; strain GC 4549): 2 µg/mL (≈ 1.44 µM) | MIC Coagulase Negative Staphylococcus (GC 4551) (Staphylococcus sp.; strain GC 4551): 4 µg/mL (≈ 2.87 µM) | MIC Staphylococcus aureus-SMITH (GC 4543) (Staphylococcus sp.; strain SMITH GC 4543): 4 µg/mL (≈ 2.87 µM) | MIC Streptococcus agalactiae (GC 4564) (Streptococcus sp.; strain GC 4564): 1 µg/mL (≈ 0.718 µM) | MIC Streptococcus pyogenes (ID-3187) (Streptococcus sp.; strain ID-3187): 1 µg/mL (≈ 0.718 µM) | MIC Enterococcus avium (GC 4558) (Enterococcus sp.; Enterococcus avium (GC 4558)): 16 µg/mL (≈ 11.5 µM) | MIC Enterococcus faecalis (ATCC 29212) (Enterococcus sp.; [1]): 16 µg/mL (≈ 11.5 µM) | MIC Enterococcus faecalis (GC 4553) (Enterococcus sp.; [2]): 16 µg/mL (≈ 11.5 µM) | MIC Enterococcus faecalis (GC 4554) (Enterococcus sp.; [3]): 32 µg/mL (≈ 23 µM) | MIC Enterococcus faecium (GC 2243) (Enterococcus sp.; Enterococcus faecium (GC 2243)): 16 µg/mL (≈ 11.5 µM) | MIC Enterococcus faecium (GC 4556) (Enterococcus sp.; Enterococcus faecium (GC 4556)): 16 µg/mL (≈ 11.5 µM) | MIC Enterococcus faecium (GC 4557) (Enterococcus sp.; Enterococcus faecium (GC 4557)): 4 µg/mL (≈ 2.87 µM) | MIC Enterococcus faecalis (ATCC 29212) (Enterococcus sp.; strain ATCC 29212): 16 µg/mL (≈ 11.5 µM) | MIC Enterococcus faecalis (GC 2242) (Enterococcus sp.; strain GC 2242): 16 µg/mL (≈ 11.5 µM) | MIC Enterococcus faecium (GC 2243) (Enterococcus sp.; strain GC 2243): 16 µg/mL (≈ 11.5 µM) | MIC Enterococcus faecalis (GC 4552) (Enterococcus sp.; strain GC 4552): 16 µg/mL (≈ 11.5 µM) | MIC Enterococcus faecalis (GC 4553) (Enterococcus sp.; strain GC 4553): 16 µg/mL (≈ 11.5 µM) | MIC Enterococcus faecalis (GC 4554) (Enterococcus sp.; strain GC 4554): 32 µg/mL (≈ 23 µM) | MIC Enterococcus faecium (GC 4556) (Enterococcus sp.; strain GC 4556): 16 µg/mL (≈ 11.5 µM) | MIC Enterococcus faecium (GC 4557) (Enterococcus sp.; strain GC 4557): 4 µg/mL (≈ 2.87 µM) | MIC Enterococcus avium (GC 4558) (Enterococcus sp.; strain GC 4558): 16 µg/mL (≈ 11.5 µM)
Compound: CC(C)CCC(=O)OC1C(OC2C(CO)OC(Oc3ccc(CC4NC(=O)C(C(C)c5ccccc5)NC(=O)CNC(=O)C(CO)NC(=O)C(C(O)C5CNC(=N)N5C5OC(CO)C(O)C(O)C5O)NC(=O)C(C(O)C5CNC(=N)N5)NC4=O)cc3)C(O)C2O)OC(CO)C(O)C1O (stereo not drawn) [Example 270a, Cyclo[glycyl-β-methylphenylalanyl-O-[4-O-[2-O-(4-methylventanovl)hexopyranosyl]-hexopyranosyl]tyrosyl-3-(2-iminoimidazolidin-4-yl)seryl-3-(3-hexopyranosyl-2-iminoimidazolidin-4-yl)serylseryl]]
MIC Staphylococcus haemolyticus (GC 4546) (Staphylococcus sp.): 2 µg/mL (≈ 1.44 µM) | MIC Staphylococcus haemolyticus (GC 4546) (Staphylococcus sp.; strain GC 4546): 2 µg/mL (≈ 1.44 µM)

MIC Escherichia coli (ATCC 25922) (Escherichia coli; strain ATCC 25922): 16 µg/mL (≈ 11.4 µM) | MIC Coagulase Negative Staphylococcus (GC 4547) (Staphylococcus sp.): 1 µg/mL (≈ 0.712 µM) | MIC Coagulase Negative Staphylococcus (GC 4548) (Staphylococcus sp.): <0.5 µg/mL | MIC Coagulase Negative Staphylococcus (GC 4549) (Staphylococcus sp.): 1 µg/mL (≈ 0.712 µM) | MIC Coagulase Negative Staphylococcus (GC 4551) (Staphylococcus sp.): 1 µg/mL (≈ 0.712 µM) | MIC Coagulase Negative Staphylococcus (ID-3941) (Staphylococcus sp.): 1 µg/mL (≈ 0.712 µM) | MIC Staphylococcus aureus (ATCC 29213) (Staphylococcus sp.): 1 µg/mL (≈ 0.712 µM) | MIC Staphylococcus aureus (GC 1131) (Staphylococcus sp.): 1 µg/mL (≈ 0.712 µM) | MIC Staphylococcus aureus (GC 4541) (Staphylococcus sp.): 1 µg/mL (≈ 0.712 µM) | MIC Staphylococcus aureus (GC 4542) (Staphylococcus sp.): 1 µg/mL (≈ 0.712 µM) | MIC Staphylococcus aureus (GC 4544) (Staphylococcus sp.): 1 µg/mL (≈ 0.712 µM) | MIC Staphylococcus aureus (GC 4545) (Staphylococcus sp.): 1 µg/mL (≈ 0.712 µM) | MIC Staphylococcus aureus-SMITH (GC 4543) (Staphylococcus sp.): 1 µg/mL (≈ 0.712 µM) | MIC Staphylococcus aureus (GC 1131) (Staphylococcus sp.; inoculum 5×10^5 CFU/mL, strain GC 1131): 1 µg/mL (≈ 0.712 µM) | MIC Staphylococcus aureus (ATCC 29213) (Staphylococcus sp.; strain ATCC 29213): 1 µg/mL (≈ 0.712 µM) | MIC Staphylococcus aureus (GC 4541) (Staphylococcus sp.; strain GC 4541): 1 µg/mL (≈ 0.712 µM) | MIC Staphylococcus aureus (GC 4542) (Staphylococcus sp.; strain GC 4542): 1 µg/mL (≈ 0.712 µM) | MIC Staphylococcus aureus (GC 4544) (Staphylococcus sp.; strain GC 4544): 1 µg/mL (≈ 0.712 µM) | MIC Staphylococcus aureus (GC 4545) (Staphylococcus sp.; strain GC 4545): 1 µg/mL (≈ 0.712 µM) | MIC Coagulase Negative Staphylococcus (GC 4547) (Staphylococcus sp.; strain GC 4547): 1 µg/mL (≈ 0.712 µM) | MIC Coagulase Negative Staphylococcus (GC 4548) (Staphylococcus sp.; strain GC 4548): <0.5 µg/mL | MIC Coagulase Negative Staphylococcus (GC 4549) (Staphylococcus sp.; strain GC 4549): 1 µg/mL (≈ 0.712 µM) | MIC Coagulase Negative Staphylococcus (GC 4551) (Staphylococcus sp.; strain GC 4551): 1 µg/mL (≈ 0.712 µM) | MIC Coagulase Negative Staphylococcus (ID-3941) (Staphylococcus sp.; strain ID-3941): 1 µg/mL (≈ 0.712 µM) | MIC Staphylococcus aureus-SMITH (GC 4543) (Staphylococcus sp.; strain SMITH GC 4543): 1 µg/mL (≈ 0.712 µM) | MIC Streptococcus agalactiae (GC 4564) (Streptococcus sp.; Streptococcus agalactiae (GC 4564)): <0.5 µg/mL | MIC Streptococcus pneumoniae (GC 4565) (Streptococcus sp.; Streptococcus pneumoniae (GC 4565)): <0.5 µg/mL | MIC Streptococcus pyogenes (ID-3187) (Streptococcus sp.; Streptococcus pyogenes (ID-3187)): <0.5 µg/mL | MIC Streptococcus agalactiae (GC 4564) (Streptococcus sp.; strain GC 4564): <0.5 µg/mL | MIC Streptococcus pneumoniae (GC 4565) (Streptococcus sp.; strain GC 4565): <0.5 µg/mL | MIC Streptococcus pyogenes (ID-3187) (Streptococcus sp.; strain ID-3187): <0.5 µg/mL | MIC Enterococcus avium (GC 4558) (Enterococcus sp.; Enterococcus avium (GC 4558)): 2 µg/mL (≈ 1.42 µM) | MIC Enterococcus faecalis (ATCC 29212) (Enterococcus sp.; [1]): 2 µg/mL (≈ 1.42 µM) | MIC Enterococcus faecalis (GC 2242) (Enterococcus sp.; Enterococcus faecalis (GC 2242)): 2 µg/mL (≈ 1.42 µM) | MIC Enterococcus faecalis (GC 4552) (Enterococcus sp.; Enterococcus faecalis (GC 4552)): 2 µg/mL (≈ 1.42 µM) | MIC Enterococcus faecalis (GC 4553) (Enterococcus sp.; [2]): 2 µg/mL (≈ 1.42 µM) | MIC Enterococcus faecalis (GC 4554) (Enterococcus sp.; [3]): 2 µg/mL (≈ 1.42 µM) | MIC Enterococcus faecium (GC 2243) (Enterococcus sp.; Enterococcus faecium (GC 2243)): 1 µg/mL (≈ 0.712 µM) | MIC Enterococcus faecium (GC 4556) (Enterococcus sp.; Enterococcus faecium (GC 4556)): 2 µg/mL (≈ 1.42 µM) | MIC Enterococcus faecium (GC 4557) (Enterococcus sp.; Enterococcus faecium (GC 4557)): 1 µg/mL (≈ 0.712 µM) | MIC Enterococcus faecalis (ATCC 29212) (Enterococcus sp.; strain ATCC 29212): 2 µg/mL (≈ 1.42 µM) | MIC Enterococcus faecalis (GC 2242) (Enterococcus sp.; strain GC 2242): 2 µg/mL (≈ 1.42 µM) | MIC Enterococcus faecium (GC 2243) (Enterococcus sp.; strain GC 2243): 1 µg/mL (≈ 0.712 µM) | MIC Enterococcus faecalis (GC 4552) (Enterococcus sp.; strain GC 4552): 2 µg/mL (≈ 1.42 µM) | MIC Enterococcus faecalis (GC 4553) (Enterococcus sp.; strain GC 4553): 2 µg/mL (≈ 1.42 µM) | MIC Enterococcus faecalis (GC 4554) (Enterococcus sp.; strain GC 4554): 2 µg/mL (≈ 1.42 µM) | MIC Enterococcus faecium (GC 4556) (Enterococcus sp.; strain GC 4556): 2 µg/mL (≈ 1.42 µM) | MIC Enterococcus faecium (GC 4557) (Enterococcus sp.; strain GC 4557): 1 µg/mL (≈ 0.712 µM) | MIC Enterococcus avium (GC 4558) (Enterococcus sp.; strain GC 4558): 2 µg/mL (≈ 1.42 µM)
Compound: CCCCCCCC1OCC2OC(OC3C(CO)OC(Oc4ccc(CC5NC(=O)C(C(C)c6ccccc6)NC(=O)CNC(=O)C(CO)NC(=O)C(C(O)C6CNC(=N)N6C6OC(CO)C(O)C(O)C6O)NC(=O)C(C(O)C6CNC(=N)N6)NC5=O)cc4)C(O)C3O)C(O)C(O)C2O1 (stereo not drawn) [Example 109, Cyclo[glycyl-β-methylphenylalanyl-O-[4-O-(4,6-O-octylidenehexopyranosyl)hexopyranosyl]-tyrosyl-3-(2-iminoimidazolidin-4-yl)seryl-3-(3-hexopyranosyl-2-iminoimidazolidin-4-yl)-serylseryl]]
MIC Staphylococcus haemolyticus (GC 4546) (Staphylococcus sp.): 1 µg/mL (≈ 0.712 µM) | MIC Staphylococcus haemolyticus (GC 4546) (Staphylococcus sp.; strain GC 4546): 1 µg/mL (≈ 0.712 µM)
